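Following 48 hours of exposure in 96-well plates, responses at five concentrations were used to interpolate endpoints linearly. The concentration for 50% growth inhibition is given as GI50.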 Calls of active or inactive are those of the source. No stated cut-off is given here; in the data, active = GI50 up to about 1.1 µM and inactive = higher.
Legend:
Assay in all cases: NCI anticancer screen, dose series, 48 h
786-0 = system: 786-0
A549 = system: A549
UACC-257 = system: UACC-257
SK-MEL-5 = system: SK-MEL-5
OVCAR-4 = system: OVCAR-4
HCT-116 = system: HCT-116
K562 = system: K562
CCRF-CEM = system: CCRF-CEM
NCI-H522 = system: NCI-H522
SN12C = system: SN12C
SK-MEL-2 = system: SK-MEL-2
MOLT-4 = system: MOLT-4
SNB-19 = system: SNB-19
SF-539 = system: SF-539
NCI/ADR-RES = system: NCI/ADR-RES
CAKI-1 = system: CAKI-1
HT-29 = system: HT-29
UACC-62 = system: UACC-62
SR = system: SR
MDA-N = system: MDA-N
COLO 205 = system: COLO 205
SK-MEL-28 = system: SK-MEL-28
EKVX = system: EKVX
MDA-MB-231 = system: MDA-MB-231
BT-549 = system: BT-549
MDA-MB-435 = system: MDA-MB-435
KM12 = system: KM12
TK-10 = system: TK-10
A498 = system: A498
U-251 = system: U-251
NCI-H226 = system: NCI-H226
MCF7 = system: MCF7
HL-60 = system: HL-60
HOP-62 = system: HOP-62
RPMI-8226 = system: RPMI-8226
PC-3 = system: PC-3
T47D = system: T47D
IGROV-1 = system: IGROV-1
Malme-3M = system: Malme-3M
OVCAR-3 = system: OVCAR-3
SW-620 = system: SW-620
OVCAR-8 = system: OVCAR-8
HCC 2998 = system: HCC 2998
SNB-75 = system: SNB-75
SF-295 = system: SF-295
M14 = system: M14
LOX IMVI = system: LOX IMVI
UO-31 = system: UO-31
ACHN = system: ACHN
OVCAR-5 = system: OVCAR-5
HCT-15 = system: HCT-15
SK-OV-3 = system: SK-OV-3
NCI-H23 = system: NCI-H23
SF-268 = system: SF-268
RXF 393 = system: RXF 393
HOP-92 = system: HOP-92
NCI-H460 = system: NCI-H460
DU-145 = system: DU-145

Measured: GI50

NNC1=N/C(=C\c2ccco2)C(=O)N1
58.3 µM: HCT-15
inactive: 786-0 > 100 µM | A549 80.9 µM | UACC-257 > 100 µM | SK-MEL-5 > 100 µM | OVCAR-4 > 100 µM | HCT-116 > 100 µM | K562 93.3 µM | CCRF-CEM > 10 µM | NCI-H522 50.6 µM | SN12C > 100 µM | SK-MEL-2 > 100 µM | MOLT-4 64.7 µM | SNB-19 > 100 µM | SF-539 > 100 µM | NCI/ADR-RES > 100 µM | CAKI-1 > 100 µM | HT-29 > 100 µM | UACC-62 33 µM | SR > 100 µM | MDA-N > 100 µM | COLO 205 > 100 µM | SK-MEL-28 > 100 µM | EKVX > 100 µM | MDA-MB-231 > 100 µM | BT-549 40.6 µM | MDA-MB-435 > 100 µM | KM12 > 100 µM | TK-10 > 100 µM | A498 > 100 µM | U-251 91.8 µM | NCI-H226 > 100 µM | MCF7 > 100 µM | HL-60 > 100 µM | HOP-62 > 100 µM | RPMI-8226 57.3 µM | PC-3 28.8 µM | T47D > 100 µM | IGROV-1 65.2 µM | Malme-3M > 100 µM | OVCAR-3 > 100 µM | SW-620 > 100 µM | OVCAR-8 > 100 µM | HCC 2998 44.3 µM | SNB-75 > 100 µM | SF-295 > 100 µM | M14 > 100 µM | LOX IMVI 60.1 µM | UO-31 59.4 µM | ACHN 47.5 µM | OVCAR-5 > 100 µM | SK-OV-3 > 100 µM | NCI-H23 > 100 µM

CC(=O)O[C@H]1CC[C@@]2(C)C(=CC[C@@H]3[C@@H]2CC[C@]2(C)c4nc(Cl)ccc4C[C@@H]32)C1
40 µM: HCT-15
inactive: 786-0 32 µM | A549 52 µM | UACC-257 32.9 µM | SK-MEL-5 30.8 µM | OVCAR-4 38.8 µM | HCT-116 32.6 µM | K562 31.1 µM | CCRF-CEM 20.6 µM | NCI-H522 24.5 µM | SN12C 41.7 µM | SF-268 49.8 µM | RXF 393 33.3 µM | MOLT-4 30.8 µM | SNB-19 93.8 µM | NCI/ADR-RES 47.4 µM | CAKI-1 66.4 µM | HT-29 36.8 µM | UACC-62 18.2 µM | SR 37 µM | MDA-N 29.3 µM | COLO 205 39.1 µM | SK-MEL-28 45.6 µM | EKVX 25.2 µM | MDA-MB-231 > 100 µM | BT-549 15.2 µM | MDA-MB-435 41.4 µM | KM12 43.3 µM | TK-10 54.3 µM | A498 87.3 µM | U-251 97.1 µM | NCI-H226 > 100 µM | HL-60 33.8 µM | HOP-62 45.4 µM | PC-3 50 µM | T47D 44.6 µM | IGROV-1 89.9 µM | Malme-3M 61.1 µM | OVCAR-3 27.9 µM | SW-620 59 µM | OVCAR-8 37.2 µM | HCC 2998 45 µM | SNB-75 33.9 µM | SF-295 24.7 µM | M14 60 µM | LOX IMVI 40.9 µM | HOP-92 54.7 µM | NCI-H460 33.4 µM | UO-31 64.6 µM | ACHN 33.7 µM | OVCAR-5 38.1 µM | DU-145 80.4 µM | SK-OV-3 > 100 µM
active: MCF7 0.944 µM | NCI-H23 0.867 µM

Cc1cc([N+](=O)[O-])ccc1/N=N/C(=O)NNc1ccc([N+](=O)[O-])cc1C
inactive: 786-0 16.9 µM | A549 15.8 µM | UACC-257 20 µM | SK-MEL-5 13.6 µM | OVCAR-4 14.1 µM | HCT-116 11.2 µM | K562 19.5 µM | CCRF-CEM 20.1 µM | NCI-H522 25 µM | SN12C 16.7 µM | SF-268 20 µM | SK-MEL-2 21 µM | MOLT-4 15.5 µM | SNB-19 15.6 µM | CAKI-1 14.8 µM | HT-29 27 µM | UACC-62 13.5 µM | SR 20.7 µM | MDA-N 15.7 µM | SK-MEL-28 16.4 µM | MDA-MB-231 > 10 µM | BT-549 11.6 µM | MDA-MB-435 12.8 µM | TK-10 16.7 µM | A498 13.6 µM | U-251 17.5 µM | NCI-H226 15.3 µM | MCF7 3.18 µM | HL-60 20 µM | HOP-62 13.7 µM | RPMI-8226 21.3 µM | PC-3 13.5 µM | T47D 15.3 µM | IGROV-1 19.6 µM | Malme-3M 17.3 µM | OVCAR-3 18.8 µM | SW-620 16.7 µM | OVCAR-8 14.7 µM | HCC 2998 16 µM | SNB-75 17 µM | M14 13.6 µM | LOX IMVI 15.9 µM | NCI-H460 17.6 µM | UO-31 11.8 µM | ACHN 15.8 µM | OVCAR-5 17.1 µM | DU-145 16.5 µM | NCI-H23 17.3 µM
19.1 µM: HCT-15

From ChEMBL document CHEMBL1201862, “PubChem BioAssay data set” (2004)
